This passage reports mass density results from the NIST ThermoML archive (doi:10.1016/j.jct.2006.03.003).

± gives the expanded uncertainty stated by the source.

For data set [1] the following is noted: 298.15 K; 101.33 kPa; Liquid.
A short description of data set [2]: xn = mol fraction of the nth substance listed. The conditions noted are these: 298.15 K; 101 kPa; Liquid; x1 = 0.61.

What is called mass density is the mass of a sample divided by its volume. On to `CC(C)=O` [acetone], for which the mass density in data set [1] is reported as 784.65 ± 0.31 kg/m3.

In the case of `CCC(=O)CC` [pentan-3-one], the mass density in data set [1] is 809.09 ± 0.28 kg/m3.

In the case of `COC(F)(F)C(F)(C(F)(F)F)C(F)(F)F` [methyl nonafluoroisobutyl ether] + COC(F)(F)C(F)(F)C(F)(F)C(F)(F)F, the mass density in data set [2] is on record as 1516.5 ± 1.8 kg/m3.

With `CCC(C)=O` [butanone], in data set [1], the mass density turned out to be 799.75 ± 0.29 kg/m3.
